From BindingDB's records for patent US20240083921 (Reistone Biopharma Company, 2024)

Target: cAMP-specific 3',5'-cyclic phosphodiesterase 4B (Homo sapiens, UniProt Q07343)
Assay: In vitro PDE4B Enzyme Activity Detection Assay
Method: 1. Experimental MaterialsName Brand Cat No.PDE4B1 enzyme BPS 60041Trequinsin TOCRIS 2337/10IMAP FP IPP Explorer Kit Molecular Device R8124FAM-cAMP Molecular Device R7506OptiPlate -384 F PerkinElmer 6007279black assay plate 384 well Echo plate Labcyte PP-02002. Experimental StepsFirst, a stock solution of the compound at a concentration of 10 mM was prepared in a test tube with 90% DMSO (10% water), and it was used to prepare a series of dilutions with a dilution factor of 1:5 and final concentrations starting from 100 μM to as low as 0.05 nM. 0.2 μl of the compound solution was transferred into a 384-well reaction plate, and 0.2 μl of 100% DMSO was transferred into both the negative and positive controls. Then, 10 μl of 2 PDE4B1 enzyme solution (making a final concentration of 0.04 nM) was added to each well, and 10 μl of 1 reaction buffer instead of the enzyme solution was added to the zero enzyme activity control wells. The plate was centrifuged at 1,000 rpm for 1 min and incubated at room temperature for 15 min. […] After the incubation, the RLU data were read and the inhibition rate was calculated. The IC50 value was calculated from the concentration-inhibition fitted curve, wherein the maximum value refers to the reading of the DMSO control and the minimum value refers to the reading of the zero enzyme activity control.

cAMP-specific 3',5'-cyclic phosphodiesterase 4B, sequence (Q07343 whole entry): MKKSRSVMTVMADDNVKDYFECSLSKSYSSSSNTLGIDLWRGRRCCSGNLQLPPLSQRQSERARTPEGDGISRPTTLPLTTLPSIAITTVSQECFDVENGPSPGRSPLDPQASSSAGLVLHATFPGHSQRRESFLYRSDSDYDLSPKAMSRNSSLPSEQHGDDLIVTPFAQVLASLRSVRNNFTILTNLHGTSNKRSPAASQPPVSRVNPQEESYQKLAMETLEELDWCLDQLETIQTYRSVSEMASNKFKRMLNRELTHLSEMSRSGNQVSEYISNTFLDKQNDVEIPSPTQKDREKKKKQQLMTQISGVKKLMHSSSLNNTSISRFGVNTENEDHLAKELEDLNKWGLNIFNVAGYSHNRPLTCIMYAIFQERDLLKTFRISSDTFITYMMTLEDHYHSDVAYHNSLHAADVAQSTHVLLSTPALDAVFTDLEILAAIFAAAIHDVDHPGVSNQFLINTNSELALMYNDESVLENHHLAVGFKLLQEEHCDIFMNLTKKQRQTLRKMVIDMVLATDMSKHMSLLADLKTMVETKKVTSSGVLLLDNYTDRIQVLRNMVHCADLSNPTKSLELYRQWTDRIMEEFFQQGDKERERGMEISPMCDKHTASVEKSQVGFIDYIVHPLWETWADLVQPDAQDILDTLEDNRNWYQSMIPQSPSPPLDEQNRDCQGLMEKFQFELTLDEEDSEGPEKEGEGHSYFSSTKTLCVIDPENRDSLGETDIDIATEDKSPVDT

IC50	SMILES
0.22 nM	COc1ccc(-c2cncc(C3COB(O)C3)c2)c2c1OC(C)(C)CO2 (configuration not stated) [US20240083921, Compound 8]
3.62 nM	COc1ccc(-c2cncc([C@H]3COB(O)C3)n2)c2c1OC(C)(C)CC2 [US20240083921, Compound 11-2]
